The values below come from US7045495B2 (Sloan-Kettering Institute for Cancer Research, priority 1996, dated 2006).

pIC50: −log10 of the molar value. “And” between values parts separate entries of the source, which are not always exact repeats. Identical values can stand only once. Counter-ions that a name gives are not always drawn. Like-named read-outs stand apart in the source and are kept apart here.

Usually pIC50 stands for the negative decadic logarithm of the IC50, by convention in mol/L.

Data set [1] relates to NU-GC-4. The data set is described as follows: clonogenic assay, resistance relative to MKN-74. Type of data set: cell-based, human. The settings on record: 10 μg/ml CDDP, 5 μg/ml MMC. The source says: (§1) The basis of drug resistance in these disease has not been well defined. […] For gastric cancer applicants have been successful in establishing five long-term cell lines, SK-GT-1, SK-GT-2, SK-GT-4, SK-GT-5, and SK-GT-6 for Sloan Kettering Gastric Tumor (12,13) none of which express P-glycoprotein (14). Yet, all these tumors are resistant to chemotherapy and to the induction of apoptosis. Applicants have reported that the relative sensitivity of these gastric cancer cells to chemotherapy is influenced by their p53 status (14).

Data set [2] deals with SK-GT-5. The data set is described as follows: clonogenic assay, resistance relative to MKN-74. Type of data set: cell-based, human. The settings on record: 10 μg/ml CDDP, 5 μg/ml MMC, 50 FM 5-FU.
From the text: as §1

The subject of data set [3] is MKN-74. The data set is described as follows: clonogenic assay, resistance relative to MKN-74. As to conditions: MKN-74 (reference); 10 μg/ml CDDP, 5 μg/ml MMC, 50 FM 5-FU. Type of data set: cell-based, human.
From the text: as §1

The test system of data set [4] is SK-GT-1. The data set is described as follows: clonogenic assay, resistance relative to MKN-74. As to conditions: clonogenic survival ratio, 10 μg/ml CDDP, 5 μg/ml MMC, 50 FM 5-FU. Type of data set: cell-based, human.
From the text: as §1

Data set [5] deals with SK-GT-2. The data set is described as follows: clonogenic assay, resistance relative to MKN-74. Type of data set: cell-based, human. As to conditions: 10 μg/ml CDDP, 5 μg/ml MMC, 50 FM 5-FU.
From the text: as §1

Data set [6] relates to MKN-74. The data set is described as follows: cell viability, trypan blue dye exclusion. Type of data set: cell-based, human. The settings on record: 24 hours, single drug or concomitant; bryostatin 1 μM, Mitomycin-C 1 μg/ml, Taxol 50 μM, Cisplatin 50 μM. The source says:
Recently our laboratory has studied the effects of combining bryostatin with chemotherapy both in vitro and in vivo against solid tumors. For our in vitro studies, we have been using the human gastric cancer cell line MKN-74. Cytotoxicity has been examined both by cell viability assays using trypan blue dye exclusion assays and by the induction of apoptosis using quantitative fluorescent microscopy.

Data set [7] deals with 16C mammary carcinoma. The settings on record: cisplatin 10 mg/kg i.v.; safingol 20 mg/kg i.p.; cited from earlier work.
For data set [8] the following is noted: dog, in vivo, iv, 2.6 mg/kg; cited from earlier work.
The conditions of data set [9]: Fischer 344 rats, cited from earlier work.
The subject of data set [10] is PKC obtained from MKN-74 gastric cancer cells. The data set is described as follows: PKC purified from MKN-74 cells, phosphorylation of myelin basic protein. Type of data set: biochemical, human. As to conditions: for PKC activity: no drug 25,000. The source says: For these experiments MKN-74 cells were homogenized and PKC was purified on a DEAE cellulose column as described (37). […] A control sample was also run with the PKC pseudosubstrate, which functions as an established PKC inhibitor. The results, as shown in the table below, are expressed as the absolute counts of [^32P]ATP incorporated into myelin basic protein/minute of assay time: […]

The subject of data set [11] is MDA-MB-468 breast cancer cells. The data set is described as follows: apoptosis by QFM, Hoechst-33258 staining. As to conditions: MDA-MB-468; flavopiridol, MMC. Type of data set: cell-based, human. On the procedure:
PRELIMINARY STUDIES. […] Apoptosis was measured by quantitative fluorescent microscopy (QFM) of nuclear changes induced by apoptosis, as determined by bisbenzimide trihydrochloride (Hoescht-33258) staining of condensed nuclear chromatin (24). For the QFM duplicate samples of 500 cells each were counted and scored for the incidence of apoptotic chromatin condensation using an Olympus BH-2 fluorescence microscope.
Applicants also tested the PKC inhibitor UCN-01 (27) which is currently in phase I clinical trial at the NCI. In contrast to safingol, which inhibits PKC by binding to its regulatory domain, UCN-01 inhibits PKC at its catalytic domain. Therefore, assessment of the effect of UCN-01 on inducing apoptosis in combination with MMC on MDA-MB-468 was also performed. The QFM method to quantitate apoptosis was again used. The conditions tested were identical to those described above for safingol except UCN-01 (1 μM) was substituted for safingol in all the conditions.
(§2) Induction of apoptosis was estimated by counting the frequency of condensed nuclear chromatin with Hoechst-33258 stain in duplicate samples of 400 cells.

For data set [12] the following is noted: cited from earlier work.
In data set [13] the test system is OV432. The data set is described as follows: trypan blue exclusion and alamar blue assays. Type of data set: cell-based. The settings on record: FLAVO 24 hours. The source says: (§3) Over-expression of bcl-2 has been associated with resistance to chemotherapy and inhibition of apoptosis.
For data set [14], the system named is 183CLL. The data set is described as follows: trypan blue exclusion and alamar blue assays. Type of data set: cell-based. The settings on record: FLAVO 24 hours.
From the text: as §3
(In general: The colour change of resazurin is a common sign of viable cells or microbes.)

For data set [15], the system named is MKN-74 cells. The data set is described as follows: trypan blue exclusion and alamar blue assays. As to conditions: Homo sapiens, FLAVO 24 hours. Type of data set: cell-based.
From the text: as §3

For data set [16], the system named is MDA-MB-468 cells. As to conditions: cited from earlier work.
In data set [17] the test system is SUDHL-4 lymphoma cells. The settings on record: cited from earlier work.
The conditions of data set [18]: second phase I trial; cited from earlier work.
Data set [19] relates to bcl-2 in OV432 cells. The data set is described as follows: bcl-2 expression by Western immunoblotting. Type of data set: cell-based. The settings on record: FLAVO concentrations as low as 50 nM.
From the text: as §3
Background: A western blot detects proteins with antibodies after separation by electrophoresis.

Data set [20] relates to A549, HCT 8, T986, MCF-7 and HL-60 human cancer cell lines. As to conditions: cited from earlier work.
Data set [21] relates to bcl-2 in MKN-74 cells. The data set is described as follows: bcl-2 expression by Western immunoblotting. Type of data set: cell-based, human. The settings on record: 300 nM of FLAVO; co-treatment with MMC 50 μM.
From the text: as §3

Data set [22] deals with PKC. The settings on record: flavopiridol; read-out: IC50, PKC enzyme activity; cited from earlier work.
For data set [23], the target named is cyclic-adenosine monophosphate-dependent protein kinase A. The settings on record: flavopiridol; read-out: IC50, cyclic AMP-dependent protein kinase; cited from earlier work.
Data set [24] deals with PC-3 prostate cancer cells. The settings on record: cited from earlier work.
Data set [25] relates to MKN-74 cells. The data set is described as follows: apoptosis by QFM, Hoechst-33258 staining. Type of data set: cell-based, human. As to the method: Apoptosis was measured by two different methods: (i) Quantitative fluorescent microscopy (QFM) of nuclear changes induced by apoptosis, as determined by bisbenzimide trihydrochloride (Hoescht-33258) staining of nuclear chromatin (15), and (ii) a terminal deoxynucleotidyl transferase (TdT) assay that labels the 3′-OH ends of DNA fragments produced in apoptotic cells (16). […] MMC was diluted in water. A stock safingol solution was constituted in DMSO and was subsequently diluted at least 1:100 in media for all experiments. […] For QFM determinations, the cells were fixed in 3% paraformaldehyde and incubated at room temperature for 10 minutes. The fixative was removed and the cells were washed with 1×PBS, resuspended in 20 μl 1×PBS containing only 8 μg/ml of bisbenzimide trihydrochloride (Hoechst #33258), and incubated at room temperature for 15 minutes. Aliquots of the cells (10 μl) were placed on glass slides coated with 3-amino-propyl-triethoxysilane, and duplicate samples of 500 cells each were counted and scored for the incidence of apoptotic chromatin condensation using an Olympus BH-2 fluorescence microscope equipped with a BH2-DM2U2UV Dich. Mirror Cube filter (Olympus, Lake Success, N.Y.). For the TdT assays, the ApopTag Kit (Oncor, Gaithersburg, Md.) was used. This method employs a fluoresceinated antidigoxigenin antibody directed against nucleotides of digoxigenin-11-dUTP (d-dUTP) which are catalytically added to the 3-ends fragmented DNA by TdT. Briefly, 1–2×10^6 cells were washed and fixed with 1% paraformaldehyde. The fixed cells were incubated in a reaction mixture containing TdT and d-dUTP for 30 minutes at 37° C. Stop/wash buffer was added, and the cells were resuspended in 100 μl of fluorescinated anti-digoxigenin antibody for 30 minutes at room temperature. The cells were then washed with 0.1% Triton X-100 and counterstained with propidium iodide (PI) solution. Green (d-dUTP labeled DNA strand breaks) and red (PI staining for total DNA content) fluorescence of individual cells were measured on a FACScan flow cytometer (Becton Dickinson, San Jose, Calif.). The resulting bivariate plots enabled the detection of apoptotic events within the cell cycle. The R1 cursor was set using the control specimen to define normal levels of green fluorescence (i.e., basal levels of apoptosis). Cells with fluorescence above the R, cursor were considered apoptotic. The data from 10,000 cells were collected and analyzed using CellFit and LYSYS software (Becton Dickinson).
Apoptosis was again measured by QFM staining.
as §2
For these studies apoptosis was measured by quantitative fluorescent microscopy (QFM) determination with bisbenzimide trihydrochloride stain (Hoescht-33258) for condensed nuclear chromatin characteristic of apoptotic cells.
For QFM determinations 500 cells were counted and scored for the incidence of apoptotic chromatin changes under an Olympus BH-2 fluorescence microscope in duplicate samples, ±SD, using a BH2-DM2U2UV Dich. Mirror Cube filter.
To study this further applicants elected to examine five bis-indolylmaleimides with various potencies against PKC. […] The induction of apoptosis was estimated by counting the frequency of condensed nuclear chromatin with Hoechst-33258 stain in duplicate samples of 400 cells.

Regarding `N.N.[Cl][Pt][Cl]` [cisplatin, Cisplatin], the “Fold-Increase in Resistance Relative to MKN-74 (p53wt)” value in data set [1] is 2X; in data set [2], 12X; in [3] it was 1X; in [4] it was 21X; in data set [5], 11X. Moreover, in data set [6], the “% of Cells Alive” value came out at 60%. In data set [7], the “time for tumor to reach 5 times its starting size” value is recorded as 10 days.
With `O=c1[nH]cc(F)c(=O)[nH]1` [5-FU, 5-Fluorouracil], the “Fold-Increase in Resistance Relative to MKN-74 (p53wt)” value in [1] is 0.6X; in [2], 6X; in [3], 1X; in data set [4] it was 11X; in [5], 12X.
`CN1CC[C@H](c2c(O)cc(O)c3c(=O)cc(-c4ccccc4Cl)oc23)[C@H](O)C1` (relative stereo) [flavopiridol, 2-(2-chlorophenyl)-5,7-dihydroxy-8-(cis-3-hydroxy-1-methyl-4-piperidinyl)-4H-1-benzopyran-4-one, hydrochloride]: the tolerability result in data set [8] was “tolerated without evidence of significant toxicity”. In data set [9], the “Maximal plasma drug concentration (Cmax)” value was 9500 ng/mL. Also, the Plasma clearance in data set [9] is reported as 58 mL/min/kg. The “elimination half-life (T1/2)” value in data set [9] was 1.87 h. Moreover, the Cmax in data set [9] (read-out: Maximal plasma drug concentration (Cmax)) is 21.7 µM. Moreover, the results for the “Percent inhibition of PKC activity” value in [10] (Flavopiridol 34 nM) and in [10] (Flavopiridol 340 nM) were 84% and 87%, respectively. The results for the PKC activity in [10] (Flavopiridol 34 nM) and in data set [10] (Flavopiridol 340 nM) were 4,000 counts of [^32P]ATP incorporated into myelin basic protein/minute and 3,300 counts of [^32P]ATP incorporated into myelin basic protein/minute, respectively. Also, the “percentage of cells undergoing apoptosis” value in data set [11] is reported as 29%±2%. Besides, the MTD in [12] (one phase I study, 72 hour infusion every 2 weeks) is listed as 50 mg/m^2/day; in data set [12] (the other phase I trial) it was 56 mg/m^2/day. For the same molecule, the pIC50 is 7.00 in [13]; 6.40 in [14]; less than 6.10 in data set [15]; 5.22 in data set [22]; 3.84 in data set [23]. Further, in data set [16] (exposure for 24 hours), the cytotoxicity result is reported as “essentially no cytotoxicity”. Further, the cell proliferation entry in [16] (prolonged exposure for 72 hours) is given as “inhibits cell proliferation”. Moreover, in data set [17], the concentration inducing apoptosis is 100 nM. Also, in data set [18], the t1/2 was 14 h. Further, the results for the bcl-2 expression entry in data set [19] and in data set [21] were “complete loss of bcl-2” and “failed to induce any decrease in bcl-2”, respectively. In addition, the “concentration range inhibiting colony formation” value in data set [20] is recorded as 250 to 300 nM. Moreover, in data set [24], the “concentration required to produce a similar effect (apoptosis)” value is recorded as “at least 1000 nM”. The “Percent Apoptosis” value in data set [25] (24 h continuous (single drug) or concomitant, flavopiridol 300 nM, MMC 1 μg/ml, paclitaxel 50 μM, carboplatin, hydrochloride) is 12%±1% and 11.6%±1%. In [25] (24 hours, FLAVO 300 nM, Taxol 50 μM, MMC 1 μg/ml, single drugs or in combination), the “% APOPTOSIS” value is given as 17%. In addition, the “percent induction of apoptosis, Concomitant” value in [25] (24 hours, FLAVO 300 nM, Taxol 50 μM, MMC 1 μg/ml, single drugs or together) is reported as 17% ± 2%. Further, the “induction of apoptosis (QFM)” value in data set [25] (FIG. 7, 24 hours, flavopiridol 300 nM, MMC 50 μM (as printed b127)) is 17%±2%. Moreover, in [25] (MKN-74, 24 hours, Flavo 300 nM, MMC 5 μg/ml), the “induction of apoptosis (condensed chromatin, 400 cells)” value was 17% ± 2.
